Source: ChEMBL document CHEMBL5244255, “An insight on medicinal attributes of 1,2,4-triazoles” (Eur J Med Chem, 2020)
≈ marks a conversion by molar mass, not a printed value.

Legend:
RS4-11 = assay: Antiproliferative activity against human RS4-11 cells assessed as cell growth inhibition incubated for 48 hrs by MTT assay; format: functional, cell-based; conditions: RS4-11, 48 h
Jurkat = assay: Antiproliferative activity against human jurkat cells assessed as cell growth inhibition incubated for 48 hrs by MTT assay; format: functional, cell-based
HeLa = assay: Antiproliferative activity against human HeLa cells assessed as cell growth inhibition incubated for 48 hrs by MTT assay; format: functional, cell-based
HT-29 = assay: Antiproliferative activity against human HT-29 cells assessed as cell growth inhibition incubated for 48 hrs by MTT assay; format: functional, cell-based; conditions: HT-29, 48 h
MCF7 = assay: Antiproliferative activity against human MCF7 cells assessed as cell growth inhibition incubated for 48 hrs by MTT assay; format: functional, cell-based; conditions: MCF7, 48 h
[1] = system: Mycobacterium tuberculosis; assay: Antimycobacterial activity against Mycobacterium tuberculosis H37Rv measured after 21 days; format: functional; conditions: 504 h, time 21 day
[2] = system: Mycobacterium tuberculosis; assay: Antimycobacterial activity against Mycobacterium tuberculosis H37Rv; format: functional
Rattus norvegicus [3] = species on record: Rattus norvegicus; assay: Bronchodilator activity in Sprague-Dawley rat; format: functional, organism-based
Rattus norvegicus [4] = assay: Antiinflammatory activity in rat assessed as reduction in carrageenan induced edema at 10 mg/kg, po measured after 4 to 5 hrs relative to control; format: functional; parameters: scale not given: the % may be the effect or the level left; conditions: time 4-5 hrs
DNA topoisomerase II = DNA topoisomerase II (Homo sapiens, UniProt P11388+Q02880); assay: Inhibition of human Topoisomerase 2 incubated for 30 mins by ELISA assay; format: protein assay
Trypanosoma cruzi [5] = assay: Trypanocidal activity against amastigote stage of Trypanosoma cruzi; format: functional, organism-based
Trypanosoma cruzi [6] = assay: Trypanocidal activity against epimastigote stage of Trypanosoma cruzi; format: functional, organism-based
Leishmania major [7] = assay: Antileishmanial activity against promastigotes stage of Leishmania major; format: functional, organism-based
Leishmania major [8] = assay: Potency index, ratio of test compound IC50 to miltefosine IC50 for antileishmanial activity against promastigotes stage of leishmania major; format: functional
Leishmania major [9] = assay: Potency index, ratio of test compound IC50 to amphotericin B IC50 for antileishmanial activity against promastigotes stage of leishmania major; format: functional
Staphylococcus aureus = assay: Antibacterial activity against Staphylococcus aureus assessed as bacterial growth inhibition incubated for 16 hrs; format: functional
[10] = system: Mycobacterium tuberculosis; assay: Antimycobacterial activity against Mycobacterium tuberculosis H37Rv measured after 8 to 9 days; format: functional; conditions: time 8-9 day
[11] = Inhibition of Mycobacterium tuberculosis shikimate dehydrogenase
[12] = Inhibition of 5 alpha reductase (unknown origin)
Plasmodium falciparum [13] = assay: Antimalarial activity against Chloroquine resistant Plasmodium falciparum W2; format: functional, organism-based
[14] = system: Xanthomonas oryzae pv. oryzae; assay: Antibacterial activity against Xanthomonas oryzae pv. oryzae assessed as bacterial growth inhibition; format: functional, organism-based
Plasmodium falciparum [15] = assay: Antimalarial activity against Plasmodium falciparum; format: functional, organism-based; conditions: Plasmodium falciparum; read-out: IC50
Plasmodium falciparum [16] = assay: microbe, parasite or virus in culture
[17] = system: Mycobacterium tuberculosis; assay: Antimycobacterial activity against Mycobacterium tuberculosis H37Rv measured after 7 days; format: functional; conditions: 168 h, time 7 day
Rattus norvegicus [18] = assay: Antiinflammatory activity in rat assessed as reduction in edema at 17 mg/kg, ip measured after 5 hrs relative to control; format: functional; parameters: scale not given: the % may be the effect or the level left
MDA-MB-231 = assay: Antiproliferative activity against human MDA-MB-231 cells assessed as cell growth inhibition by MTT assay; format: functional, cell-based

## COc1cccc(-c2nc(N)n(C(=O)c3cc(OC)c(OC)c(OC)c3)n2)c1
RS4-11
  IC50: < 1000 nM
Jurkat
  IC50: < 1000 nM
HeLa
  IC50: < 1000 nM
HT-29
  IC50: < 1000 nM
MCF7
  IC50: < 1000 nM

## CC(C)=CCC/C(C)=C/COc1ccc(/C=C/c2nnc3c4ccccc4cnn23)cc1
[1]
  MIC: 0.5 µg/mL (≈ 1.18 µM)

## OC1CCC(C(O)c2nnc(-c3ccncc3)[nH]2)CC1O (stereo unspecified)
[2]
  MIC: 0.59 µg/mL (≈ 2.03 µM)

## Cc1nc2[nH]cc(-c3n[nH]c(=S)n3-c3ccccc3)c(=O)n2n1
Rattus norvegicus [3]
  EC50: 18600 nM

## Clc1cccc(Cl)c1Nc1ccccc1Cc1nncn1Nc1nc2ccccc2s1
Rattus norvegicus [4]
  Activity: 85.31%

## O=C(CSc1nc2ccccc2n2cnnc12)Nc1ccc(S(=O)(=O)Nc2ccccn2)cc1
DNA topoisomerase II
  IC50: 970 nM

## C(/C=C/c1ccc2c(c1)OCO2)=C\C1=NNC(SCc2ccccc2)N1C1CCCCC1 (stereo unspecified)
Trypanosoma cruzi [5]
  IC50: 3610 nM
Trypanosoma cruzi [6]
  IC50: 3180 nM

## CC(C)C(C(=O)O)N1C(N)=NNC1c1ccccc1O (stereo unspecified)
Leishmania major [7]
  IC50: 0.0312 µg/mL (≈ 0.112 µM)
Leishmania major [8]
  Ratio IC50: 36
Leishmania major [9]
  Ratio IC50: 36

## Cc1ccc(C(=O)NCc2nnc(S)n2/N=C/c2ccc([N+](=O)[O-])cc2)cc1
Staphylococcus aureus
  MIC: 3.12 µg/mL (≈ 7.88 µM)

## Brc1ccc(OCc2nn3c(-c4ccc(Br)cc4)nnc3s2)cc1
[10]
  MIC: 14.4 µg/mL (≈ 30.9 µM)
[11]
  IC50: 14.42 µg/mL (≈ 30.9 µM)

## CC(C)(C#N)c1cc(Cn2cncn2)cc(C(C)(C)C#N)c1
[12]
  ED50: 1090 nM

## COc1ccc(/C=N/n2c(S)nnc2CNC(=O)c2ccccc2)cc1
Staphylococcus aureus
  MIC: 3.12 µg/mL (≈ 8.5 µM)

## COc1ccc(Nc2cc(C)nc3nc(C(F)(F)F)nn23)cc1
Plasmodium falciparum [13]
  IC50: 23 nM

## CCCCCCCCCNC(=O)Cc1nnc2c3ccccc3cnn12
[1]
  MIC: 0.5 µg/mL (≈ 1.41 µM)

## Clc1ccc(-c2nnc3sc(COc4ccc(Br)cc4)nn23)cc1
[10]
  MIC: 6.82 µg/mL (≈ 16.2 µM)
[11]
  IC50: 6.82 µg/mL (≈ 16.2 µM)

## O=C(CSc1nnc(C2CCN(c3ncnc4ccccc34)CC2)n1-c1ccccc1)Nc1ccc(F)cc1F
[14]
  EC50: 34.5 µg/mL (≈ 61.9 µM)

## CC1CCC(O)(c2nnc(-c3ccncc3)[nH]2)CC1 (stereo unspecified)
[2]
  MIC: 0.59 µg/mL (≈ 2.28 µM)

## C=C[C@H]1CN2CC[C@H]1C[C@H]2[C@H](O)c1ccnc2ccc(OC)cc12 [QUININE]
Plasmodium falciparum [15]
  IC50: 286 nM
Plasmodium falciparum [16]
  IC50: 0.268 µg/mL (≈ 0.826 µM)

## COc1ccc(/C=N/n2c(S)nnc2CNC(=O)c2ccc(C)cc2)cc1
Staphylococcus aureus
  MIC: 3.12 µg/mL (≈ 8.19 µM)

## CC1(c2ccccc2O)NN=C(N)N1C(Cc1cc2ccccc2[nH]1)C(=O)O (stereo unspecified)
Leishmania major [7]
  IC50: 0.0312 µg/mL (≈ 0.0822 µM)
Leishmania major [8]
  Ratio IC50: 36
Leishmania major [9]
  Ratio IC50: 36

## CC[C@@H](CO)NCCN[C@@H](CC)CO [ETHAMBUTOL]
[17]
  MIC: 6.25 µg/mL (≈ 30.6 µM)

## COc1ccc(-c2cc(-c3nnc(SCC(=O)Nc4ccc(/C(C)=N/O)cc4)n3-c3ccccc3)c3ccccc3n2)cc1
Rattus norvegicus [18]
  Activity: 100%

## CC(C)SC1NN=C(/C=C/C=C/c2ccc3c(c2)OCO3)N1C1CCCCC1 (stereo unspecified)
Trypanosoma cruzi [5]
  IC50: 3610 nM
Trypanosoma cruzi [6]
  IC50: 3180 nM

## O=C(CSc1nnc(C2CCN(c3ncnc4ccccc34)CC2)n1-c1ccccc1)Nc1ccccc1[N+](=O)[O-]
[14]
  EC50: 34.5 µg/mL (≈ 60.9 µM)

## Cc1cc(Nc2ccc(C(F)(F)F)cc2)n2nc(C(F)(F)F)nc2n1
Plasmodium falciparum [13]
  IC50: 23 nM

## S=c1[nH]nc(/C=C/C=C/c2ccc3c(c2)OCO3)n1C1CCCCC1
Trypanosoma cruzi [5]
  IC50: 8870 nM
Trypanosoma cruzi [6]
  IC50: 18300 nM

## O=C(CSc1nnc(COc2ccccc2)n1-c1ccc(Cl)cc1)Nc1nc2ccccc2s1
Rattus norvegicus [4]
  Activity: 84.43%

## COc1cccc(NC(=O)CSc2nnc(C3CCN(c4ncnc5ccccc45)CC3)n2-c2ccccc2)c1
[14]
  EC50: 34.5 µg/mL (≈ 62.5 µM)

## OC1(c2nnc(-c3ccncc3)[nH]2)CCCCC1
[2]
  MIC: 0.59 µg/mL (≈ 2.42 µM)

## C#Cc1nnc2c3ccccc3cnn12
[1]
  MIC: 0.5 µg/mL (≈ 2.57 µM)

## O=[N+]([O-])c1ncn(CCCCNS(=O)(=O)c2scc(Cl)c2Cl)n1
[17]
  MIC: 1.56 µg/mL (≈ 3.9 µM)

## Cc1nn(-c2ccccc2)c(=O)n1-n1c(-c2cc3ccccc3oc2=O)cs/c1=N\c1ccccc1
MDA-MB-231
  IC50: 0.16 µg/mL (≈ 0.324 µM)
